Laboratory results as given in patent US6784165B1, “Treatment of heart rhythm disturbances with N6-substituted-5′-(N-substituted) carboxamidoadenosines” (Aderis Pharmaceuticals, Inc., priority 1999, dated 2004).
Where two headings read alike, the source gives them in different places.

Tests used:
[1] = Oral bioavailability estimated from bradycardia AUC oral vs intravenous in conscious rats; type: in vivo, rat; details: for bioavailability: male, Sprague-Dawley, rat, in vivo
Excerpt: (§1) Concentration dose-effect curve data were fitted to a sigmoid curve using Graphpad PRIZM™ software to obtain the concentration or dose of test compound that produces 50% of the maximal obtainable response, in vitro EC50 or in vivo ED50 values, for activation of the adenosine A1 receptor. Responses measured to each dose were the plateau negative inotropic response to cumulative additions of test compound in the isolated left atria and the peak bradycardia in response to bolus intravenous injections of test compound in conscious rats. Oral bioavailability was estimated from pharmacodynamic responses using the expression: (Response AUCoral/Response AUCiv)(Doseiv/Doseoral), where Response AUC is the area under the curve for test compound-induced bradycardia over time.
(§2) Male Sprague-Dawley rats were anesthetized with sodium pentobarbital 50 mg/kg i.p., and indwelling catheters were surgically implanted in the carotid artery and jugular vein two days prior to each experiment. During all subsequent experiments, rats were conscious and unrestrained. The carotid artery cannula was attached to a pressure transducer and blood pressure was recorded continuously throughout each experiment using a Grass polygraph. Heart rate was derived from the blood pressure signal using a Grass tachygraph. The measured parameters were allowed from 30 to 90 minutes to stabilize before the administration of test compound.
(§3) Test compounds were administered either by oral gavage using a curved, bulbed oral dosing cannula, or by intravenous administration via the jugular vein indwelling catheter. Rats dosed orally were fasted overnight before dosing, with water available ad libitum. Because the heart rate responses following intravenous administration of test compound rapidly returned to baseline, more than one dose of test compound could be administered to each rat. However, the responses to oral administration of test compounds were of a prolonged duration and therefore only a single dose could be administered to each rat.
A comparison of the area under the bradycardia vs. time curve (AUC) following intravenous administration with the AUC following oral administration was used as a measure of oral bioavailability.

adenosine A1 receptor [2] = biological target: T1, adenosine A1 receptor (Rattus norvegicus, UniProt P25099); assay: Negative inotropic response in electrically stimulated rat isolated left atria (isoproterenol-stimulated); parameters: from tissue; host or cells: whole animal (conscious Sprague-Dawley rats); details: plateau negative inotropic response, 1 Hz, isoproterenol 10^−8 M
T1 sequence (P25099 1-326): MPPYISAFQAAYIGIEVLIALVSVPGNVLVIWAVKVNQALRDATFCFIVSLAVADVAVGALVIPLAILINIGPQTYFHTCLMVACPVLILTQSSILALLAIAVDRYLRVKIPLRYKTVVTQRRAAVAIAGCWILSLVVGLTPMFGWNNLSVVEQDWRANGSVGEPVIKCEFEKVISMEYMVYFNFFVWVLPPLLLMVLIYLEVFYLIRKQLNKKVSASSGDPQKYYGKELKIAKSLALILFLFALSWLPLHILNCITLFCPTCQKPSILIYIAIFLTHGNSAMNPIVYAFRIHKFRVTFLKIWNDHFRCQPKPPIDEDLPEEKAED
Excerpt: as §1
Male Sprague-Dawley rats weighing 200-350 grams were sacrificed and the hearts rapidly removed and placed in a warmed Krebs-Henseleit buffer solution. The left atria were dissected free from the hearts and suspended in 30 mL jacketed isolated organ baths filled with Krebs-Henseleit buffer, oxygenated with 95% O2/5% CO2 and maintained at 37° C. Tissues were connected to a force displacement transducer under a resting tension of 1 gram. Atria were stimulated electrically at 1 Hz, 1 msec duration and supramaximal voltage to produce regular contractions of tissue.
Adenosine A1 agonists were added to the baths at increasing cumulative concentrations until a maximal decrease in the force of contraction was obtained. Because adenosine A1 agonists have only a small direct negative inotropic action in rat atria, it was necessary to stimulate β-adrenergic receptors to produce positive inotropy in order to maximize the negative intropic response and thereby facilitate measurement. Under these conditions, adenosine A1 agonists acting at A1 receptors indirectly reduce the β-adrenergic mediated positive inotropy. Accordingly, the β-adrenergic agonist isoproterenol (10^−8 M) was added to the organ baths approximately 15 minutes before the addition of the adenosine A1 agonist.

adenosine A1 receptor [3] = biological target: T1, adenosine A1 receptor; assay: Peak bradycardia after bolus intravenous injection in conscious rats; type: in vivo; parameters: from tissue; host or cells: whole animal (conscious Sprague-Dawley rats); details: bolus intravenous injections
Excerpt: as §1, §2, §3

| SMILES | bioavailability [1] [%] | EC50 (adenosine A1 receptor [2]) [nM] | ED50 (adenosine A1 receptor [3]; rat, read-out: ED50) [µmol/kg] | Oral Bioavailability [1] [%] | ED50 (adenosine A1 receptor [3]) [µmol/kg] |
| --- | --- | --- | --- | --- | --- |
| O=C(NCCO)[C@H]1O[C@@H](n2cnc3c(NC4CCCC4)ncnc32)[C@H](O)[C@@H]1O [B] | 8.4 | 11.2 | 0.0074 | – | – |
| O=C(NC1CC1)[C@H]1O[C@@H](n2cnc3c(NC4CCCC4)ncnc32)[C@H](O)[C@@H]1O [C, N^6-cyclopentyl-5′-(N-cyclopropyl)carboxamidoadenosine] | 38 | 3.8 | 0.0093 | – | – |
| CNC(=O)[C@H]1O[C@@H](n2cnc3c(NC4CCCC4)ncnc32)[C@H](O)[C@@H]1O [D, N^6-cyclopentyl-5′-(N-methyl)carboxamidoadenosine] | 20 | 19.1 | 0.0039 | – | – |
| CC(C)NC(=O)[C@H]1O[C@@H](n2cnc3c(NC4CCCC4)ncnc32)[C@H](O)[C@@H]1O [E] | 28 | 11 | 0.0034 | – | – |
| CC(C)(C)NC(=O)[C@H]1O[C@@H](n2cnc3c(NC4CCCC4)ncnc32)[C@H](O)[C@@H]1O [F, N^6-cyclopentyl-5′-(N-t-butyl)carboxamidoadenosine] | 34 | 72.4 | 0.363 | – | – |
| CCCNC(=O)[C@H]1O[C@@H](n2cnc3c(NC4CCCC4)ncnc32)[C@H](O)[C@@H]1O [G] | 14 | 25.1 | 0.0323 | – | – |
| O=C(NCCO)C1OC(n2cnc3c(NC4CC5CCC4C5)ncnc32)C(O)C1O (stereo not drawn) [H] | – | 3.8 | – | 2.3 | 0.0034 |
| CCNC(=O)[C@H]1O[C@@H](n2cnc3c(NC(CC)CC)ncnc32)[C@H](O)[C@@H]1O [I, N^6-(3-pentyl)-5′-(N-ethyl)carboxamidoadenosine] | 20 | 7.9 | 0.0079 | – | – |
| CCC(CC)Nc1ncnc2c1ncn2[C@@H]1O[C@H](C(=O)NCCO)[C@@H](O)[C@H]1O [J] | 9.9 | 21.8 | 0.0083 | – | – |
